Laboratory results as given in ChEMBL document CHEMBL5465560, “Selectivity Literature for EUbOPEN Chemogenomic Library” (2024).

Experiments:
[1] = target: Dual specificity protein kinase CLK3 (Homo sapiens, UniProt P49761); details: at 10 µM
[2] = target: Proto-oncogene tyrosine-protein kinase ROS (Homo sapiens) (UniProt P08922); experiment: Selectivity interaction (KinomeScan (DiscoverX)) EUB0000229b ROS1; details: at 10 µM
[3] = target: T1, Ephrin type-B receptor 4 (Homo sapiens) (UniProt P54760); experiment: Selectivity interaction (KinomeScan (DiscoverX)) EUB0000655a EPHB4; details: at 10 µM
T1 sequence (whole entry): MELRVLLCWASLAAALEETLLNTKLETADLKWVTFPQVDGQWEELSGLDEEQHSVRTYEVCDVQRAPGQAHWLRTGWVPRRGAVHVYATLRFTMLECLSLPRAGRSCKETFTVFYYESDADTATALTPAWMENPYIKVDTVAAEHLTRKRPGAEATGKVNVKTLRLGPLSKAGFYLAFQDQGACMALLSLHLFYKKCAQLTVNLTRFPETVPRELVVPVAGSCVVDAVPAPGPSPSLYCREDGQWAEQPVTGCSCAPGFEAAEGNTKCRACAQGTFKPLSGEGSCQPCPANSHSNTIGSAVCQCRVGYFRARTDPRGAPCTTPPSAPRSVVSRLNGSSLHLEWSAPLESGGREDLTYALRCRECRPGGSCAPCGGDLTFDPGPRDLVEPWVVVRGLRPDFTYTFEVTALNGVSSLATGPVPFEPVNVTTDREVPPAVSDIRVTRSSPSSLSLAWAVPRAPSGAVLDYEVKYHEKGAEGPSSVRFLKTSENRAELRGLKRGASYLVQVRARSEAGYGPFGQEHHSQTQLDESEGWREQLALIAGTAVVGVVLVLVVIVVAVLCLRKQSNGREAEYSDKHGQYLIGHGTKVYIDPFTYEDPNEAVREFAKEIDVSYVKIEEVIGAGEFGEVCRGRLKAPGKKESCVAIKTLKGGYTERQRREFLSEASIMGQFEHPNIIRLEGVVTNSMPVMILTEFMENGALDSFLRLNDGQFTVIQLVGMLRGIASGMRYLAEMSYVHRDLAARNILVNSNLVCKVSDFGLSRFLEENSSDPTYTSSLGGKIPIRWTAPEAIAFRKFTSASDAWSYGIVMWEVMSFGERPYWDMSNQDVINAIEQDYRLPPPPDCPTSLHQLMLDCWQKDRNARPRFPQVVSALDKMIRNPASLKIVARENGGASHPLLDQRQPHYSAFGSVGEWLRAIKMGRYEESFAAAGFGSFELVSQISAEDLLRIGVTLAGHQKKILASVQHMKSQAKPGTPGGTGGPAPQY

[4] = target: Mitogen-activated protein kinase kinase kinase 14 (Homo sapiens) (UniProt Q99558); experiment: Selectivity interaction (ProQinase) EUB0000171b MAP3K14
Chain of Mitogen-activated protein kinase kinase kinase 14 (Homo sapiens) (Q99558 whole entry, looked up): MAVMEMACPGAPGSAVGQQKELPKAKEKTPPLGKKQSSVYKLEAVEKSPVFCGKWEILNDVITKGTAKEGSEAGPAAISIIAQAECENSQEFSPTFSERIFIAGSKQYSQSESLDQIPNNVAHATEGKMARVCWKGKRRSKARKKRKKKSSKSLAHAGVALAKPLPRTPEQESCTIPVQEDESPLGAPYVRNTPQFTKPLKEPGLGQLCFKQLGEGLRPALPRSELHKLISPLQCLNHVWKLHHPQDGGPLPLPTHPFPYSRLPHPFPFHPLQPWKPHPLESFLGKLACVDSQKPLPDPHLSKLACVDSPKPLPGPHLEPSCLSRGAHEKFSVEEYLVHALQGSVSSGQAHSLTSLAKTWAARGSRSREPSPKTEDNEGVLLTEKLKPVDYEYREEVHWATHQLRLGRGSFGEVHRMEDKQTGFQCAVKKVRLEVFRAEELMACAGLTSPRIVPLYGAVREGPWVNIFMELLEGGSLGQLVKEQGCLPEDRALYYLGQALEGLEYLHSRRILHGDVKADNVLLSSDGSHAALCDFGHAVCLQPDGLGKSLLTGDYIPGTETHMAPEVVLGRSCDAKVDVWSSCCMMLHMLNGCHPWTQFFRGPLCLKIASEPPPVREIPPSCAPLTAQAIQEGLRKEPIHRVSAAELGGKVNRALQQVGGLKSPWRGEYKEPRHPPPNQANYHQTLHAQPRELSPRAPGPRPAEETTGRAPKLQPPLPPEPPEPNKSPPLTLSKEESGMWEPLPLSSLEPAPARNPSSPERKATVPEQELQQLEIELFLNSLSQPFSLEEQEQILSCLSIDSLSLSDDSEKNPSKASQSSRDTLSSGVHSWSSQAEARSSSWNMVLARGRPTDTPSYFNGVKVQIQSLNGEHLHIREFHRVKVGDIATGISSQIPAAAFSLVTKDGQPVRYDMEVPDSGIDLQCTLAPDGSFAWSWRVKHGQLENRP

[5] = target: T2, Tyrosine-protein kinase Tec (Homo sapiens) (UniProt P42680); experiment: Selectivity interaction (KinomeScan (DiscoverX)) EUB0001079a TEC; details: at 1 µM
T2 sequence (whole entry): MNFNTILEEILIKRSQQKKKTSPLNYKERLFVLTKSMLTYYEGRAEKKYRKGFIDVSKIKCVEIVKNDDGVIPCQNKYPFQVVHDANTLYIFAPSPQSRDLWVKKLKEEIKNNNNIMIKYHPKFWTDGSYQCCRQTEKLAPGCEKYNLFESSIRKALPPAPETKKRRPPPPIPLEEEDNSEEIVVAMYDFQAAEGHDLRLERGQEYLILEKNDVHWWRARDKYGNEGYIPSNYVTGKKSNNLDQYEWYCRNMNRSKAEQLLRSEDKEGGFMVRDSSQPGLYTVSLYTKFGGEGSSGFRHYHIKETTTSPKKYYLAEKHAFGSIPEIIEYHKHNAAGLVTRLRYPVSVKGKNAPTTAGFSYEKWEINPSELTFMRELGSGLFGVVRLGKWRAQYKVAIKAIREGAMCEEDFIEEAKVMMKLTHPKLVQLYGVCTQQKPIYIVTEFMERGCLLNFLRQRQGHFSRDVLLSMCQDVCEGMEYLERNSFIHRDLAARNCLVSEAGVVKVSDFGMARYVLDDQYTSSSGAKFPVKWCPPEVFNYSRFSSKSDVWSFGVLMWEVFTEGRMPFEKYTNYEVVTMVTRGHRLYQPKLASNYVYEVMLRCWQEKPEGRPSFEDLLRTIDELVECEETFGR

[6] = target: STE20/SPS1-related proline-alanine-rich protein kinase (Homo sapiens) (UniProt Q9UEW8); experiment: Selectivity interaction (KinomeScan (DiscoverX)) EUB0000666a STK39; details: at 10 µM
[7] = target: Tyrosine-protein kinase Fer (Homo sapiens) (UniProt P16591); experiment: Selectivity interaction (KinomeScan (DiscoverX)) EUB0000595a FER; details: at 10 µM
[8] = target: T3, Inhibitor of nuclear factor kappa-B kinase subunit beta (Homo sapiens) (UniProt O14920); experiment: Selectivity interaction (KinomeScan (DiscoverX)) EUB0000595a IKBKB; details: at 10 µM
T3 sequence (whole entry): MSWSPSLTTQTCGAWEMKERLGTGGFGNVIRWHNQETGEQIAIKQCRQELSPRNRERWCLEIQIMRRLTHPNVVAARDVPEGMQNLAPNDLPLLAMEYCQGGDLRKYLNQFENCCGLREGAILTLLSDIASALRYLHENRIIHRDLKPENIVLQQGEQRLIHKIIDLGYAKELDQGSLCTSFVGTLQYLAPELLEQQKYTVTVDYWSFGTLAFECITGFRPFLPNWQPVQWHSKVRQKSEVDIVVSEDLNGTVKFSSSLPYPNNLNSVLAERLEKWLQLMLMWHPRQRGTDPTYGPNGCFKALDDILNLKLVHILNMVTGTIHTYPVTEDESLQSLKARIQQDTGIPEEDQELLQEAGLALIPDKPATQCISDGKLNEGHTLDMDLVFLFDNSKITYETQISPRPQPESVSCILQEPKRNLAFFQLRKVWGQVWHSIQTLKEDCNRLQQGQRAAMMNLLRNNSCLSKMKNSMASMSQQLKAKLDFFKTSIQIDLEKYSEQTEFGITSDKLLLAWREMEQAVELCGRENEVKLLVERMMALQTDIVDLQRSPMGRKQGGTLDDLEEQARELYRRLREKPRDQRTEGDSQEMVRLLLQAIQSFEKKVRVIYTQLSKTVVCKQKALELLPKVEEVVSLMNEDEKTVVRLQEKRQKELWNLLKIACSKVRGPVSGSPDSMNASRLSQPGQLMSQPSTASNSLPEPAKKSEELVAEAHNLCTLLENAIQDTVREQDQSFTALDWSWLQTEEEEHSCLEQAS

[9] = target: Non-receptor tyrosine-protein kinase TYK2 (Homo sapiens, UniProt P29597); experiment: Selectivity interaction (KinomeScan (DiscoverX)) EUB0000595a TYK2; details: at 10 µM
Chain of Non-receptor tyrosine-protein kinase TYK2 (P29597 whole entry): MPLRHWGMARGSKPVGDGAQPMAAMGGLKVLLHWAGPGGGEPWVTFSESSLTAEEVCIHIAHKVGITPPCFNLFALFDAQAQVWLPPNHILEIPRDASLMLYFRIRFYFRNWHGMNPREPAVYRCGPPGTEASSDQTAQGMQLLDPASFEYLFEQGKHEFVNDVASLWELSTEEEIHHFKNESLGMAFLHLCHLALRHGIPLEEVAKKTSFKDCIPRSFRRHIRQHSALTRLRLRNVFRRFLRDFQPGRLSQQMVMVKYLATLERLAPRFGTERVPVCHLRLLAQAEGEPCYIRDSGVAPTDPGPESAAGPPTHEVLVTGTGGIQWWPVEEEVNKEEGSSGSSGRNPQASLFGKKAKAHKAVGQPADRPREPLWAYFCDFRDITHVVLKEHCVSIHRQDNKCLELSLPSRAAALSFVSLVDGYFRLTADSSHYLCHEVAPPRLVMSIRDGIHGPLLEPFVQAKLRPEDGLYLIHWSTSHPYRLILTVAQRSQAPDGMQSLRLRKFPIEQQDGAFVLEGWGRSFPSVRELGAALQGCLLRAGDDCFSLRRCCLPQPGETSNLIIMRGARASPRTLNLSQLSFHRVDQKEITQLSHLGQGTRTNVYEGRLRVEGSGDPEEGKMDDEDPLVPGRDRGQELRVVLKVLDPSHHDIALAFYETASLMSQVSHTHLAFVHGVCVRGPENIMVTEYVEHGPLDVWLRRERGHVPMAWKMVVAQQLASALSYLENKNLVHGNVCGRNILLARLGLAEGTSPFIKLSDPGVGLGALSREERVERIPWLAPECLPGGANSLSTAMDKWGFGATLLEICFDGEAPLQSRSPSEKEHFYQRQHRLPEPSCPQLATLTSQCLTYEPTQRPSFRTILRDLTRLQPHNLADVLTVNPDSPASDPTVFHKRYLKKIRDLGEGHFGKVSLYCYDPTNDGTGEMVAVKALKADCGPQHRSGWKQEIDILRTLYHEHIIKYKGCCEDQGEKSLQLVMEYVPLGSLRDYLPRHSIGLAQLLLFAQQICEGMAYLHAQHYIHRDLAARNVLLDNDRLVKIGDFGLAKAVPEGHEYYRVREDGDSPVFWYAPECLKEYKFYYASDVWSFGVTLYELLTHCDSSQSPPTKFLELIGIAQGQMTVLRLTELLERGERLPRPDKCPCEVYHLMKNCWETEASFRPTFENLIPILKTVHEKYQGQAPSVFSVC

[10] = test system: Epidermal growth factor receptor (Homo sapiens), P00533 [UNDEFINED MUTATION]; experiment: Selectivity interaction (Ambit KINOMEscan and KiNATiv profiling in Jurkat cells) EUB0000090b EGFR; assay type: cell-based; details: at 1 µM
[11] = target: Ribosomal protein S6 kinase alpha-3 (Homo sapiens, UniProt P51812); experiment: Selectivity interaction (KinomeScan (DiscoverX)) EUB0001619a RPS6KA3; details: at 1 µM

Chain of Proto-oncogene tyrosine-protein kinase ROS (Homo sapiens) (P08922 whole entry): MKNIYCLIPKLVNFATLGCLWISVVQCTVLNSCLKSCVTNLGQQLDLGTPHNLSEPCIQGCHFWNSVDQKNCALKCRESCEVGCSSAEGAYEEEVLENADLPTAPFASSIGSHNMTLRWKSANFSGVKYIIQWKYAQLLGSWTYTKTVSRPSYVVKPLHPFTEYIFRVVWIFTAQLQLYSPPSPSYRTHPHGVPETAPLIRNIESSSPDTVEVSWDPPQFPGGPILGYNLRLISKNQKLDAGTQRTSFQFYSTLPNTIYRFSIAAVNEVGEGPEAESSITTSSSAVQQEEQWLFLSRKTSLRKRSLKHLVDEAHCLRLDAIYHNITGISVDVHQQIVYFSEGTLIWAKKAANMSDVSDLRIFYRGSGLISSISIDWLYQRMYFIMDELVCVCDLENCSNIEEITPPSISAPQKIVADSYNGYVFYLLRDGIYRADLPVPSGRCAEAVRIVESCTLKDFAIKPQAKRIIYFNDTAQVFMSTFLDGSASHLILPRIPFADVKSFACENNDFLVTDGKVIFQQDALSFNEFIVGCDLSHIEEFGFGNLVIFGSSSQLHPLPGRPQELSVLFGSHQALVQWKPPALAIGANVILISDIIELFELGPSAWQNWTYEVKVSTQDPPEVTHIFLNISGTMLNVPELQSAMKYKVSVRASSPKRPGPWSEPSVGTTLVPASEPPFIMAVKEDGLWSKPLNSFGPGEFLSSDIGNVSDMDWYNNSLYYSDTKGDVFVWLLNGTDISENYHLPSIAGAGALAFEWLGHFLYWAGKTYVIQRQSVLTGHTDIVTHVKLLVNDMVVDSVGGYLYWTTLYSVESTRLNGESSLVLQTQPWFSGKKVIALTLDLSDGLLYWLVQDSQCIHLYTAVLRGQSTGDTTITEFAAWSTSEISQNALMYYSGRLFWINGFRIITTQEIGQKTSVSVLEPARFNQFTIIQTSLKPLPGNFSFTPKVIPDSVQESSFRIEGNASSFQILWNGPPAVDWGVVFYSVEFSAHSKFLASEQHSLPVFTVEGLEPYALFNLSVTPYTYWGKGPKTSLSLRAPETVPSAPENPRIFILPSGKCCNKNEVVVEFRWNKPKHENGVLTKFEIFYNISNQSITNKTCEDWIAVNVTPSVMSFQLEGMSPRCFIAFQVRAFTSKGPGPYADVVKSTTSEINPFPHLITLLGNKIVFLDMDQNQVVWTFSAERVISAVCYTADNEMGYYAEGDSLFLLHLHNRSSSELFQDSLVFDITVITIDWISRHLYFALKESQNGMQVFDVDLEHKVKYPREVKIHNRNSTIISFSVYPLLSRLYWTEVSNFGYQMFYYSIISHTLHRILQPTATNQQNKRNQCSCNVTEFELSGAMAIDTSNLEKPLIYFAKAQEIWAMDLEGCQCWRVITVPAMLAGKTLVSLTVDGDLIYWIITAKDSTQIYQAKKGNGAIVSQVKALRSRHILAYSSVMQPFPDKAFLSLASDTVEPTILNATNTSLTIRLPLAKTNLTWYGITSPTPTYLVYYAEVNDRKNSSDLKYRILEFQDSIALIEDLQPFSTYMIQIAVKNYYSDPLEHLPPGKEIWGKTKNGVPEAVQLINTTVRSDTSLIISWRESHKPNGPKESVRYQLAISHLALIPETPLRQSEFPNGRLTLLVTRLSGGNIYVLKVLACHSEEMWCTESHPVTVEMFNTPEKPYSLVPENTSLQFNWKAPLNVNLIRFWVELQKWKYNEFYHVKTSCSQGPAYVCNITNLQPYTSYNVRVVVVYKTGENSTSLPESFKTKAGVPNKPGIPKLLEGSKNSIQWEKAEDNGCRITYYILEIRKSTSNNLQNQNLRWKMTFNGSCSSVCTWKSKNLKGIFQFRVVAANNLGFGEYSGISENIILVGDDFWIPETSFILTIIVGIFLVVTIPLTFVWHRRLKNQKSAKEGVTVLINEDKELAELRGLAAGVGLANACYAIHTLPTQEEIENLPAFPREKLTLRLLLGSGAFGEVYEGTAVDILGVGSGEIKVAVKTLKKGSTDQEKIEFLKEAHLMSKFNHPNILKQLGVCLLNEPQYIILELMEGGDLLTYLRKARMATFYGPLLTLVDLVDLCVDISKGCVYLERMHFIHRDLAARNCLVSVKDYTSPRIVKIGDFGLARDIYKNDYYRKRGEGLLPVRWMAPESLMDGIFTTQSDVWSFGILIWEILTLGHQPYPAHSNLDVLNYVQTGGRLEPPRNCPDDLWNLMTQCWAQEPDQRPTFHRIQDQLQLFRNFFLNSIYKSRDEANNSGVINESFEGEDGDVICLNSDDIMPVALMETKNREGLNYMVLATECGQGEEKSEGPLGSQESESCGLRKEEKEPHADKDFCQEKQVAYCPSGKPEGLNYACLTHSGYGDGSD
Chain of Dual specificity protein kinase CLK3 (P49761 whole entry, looked up): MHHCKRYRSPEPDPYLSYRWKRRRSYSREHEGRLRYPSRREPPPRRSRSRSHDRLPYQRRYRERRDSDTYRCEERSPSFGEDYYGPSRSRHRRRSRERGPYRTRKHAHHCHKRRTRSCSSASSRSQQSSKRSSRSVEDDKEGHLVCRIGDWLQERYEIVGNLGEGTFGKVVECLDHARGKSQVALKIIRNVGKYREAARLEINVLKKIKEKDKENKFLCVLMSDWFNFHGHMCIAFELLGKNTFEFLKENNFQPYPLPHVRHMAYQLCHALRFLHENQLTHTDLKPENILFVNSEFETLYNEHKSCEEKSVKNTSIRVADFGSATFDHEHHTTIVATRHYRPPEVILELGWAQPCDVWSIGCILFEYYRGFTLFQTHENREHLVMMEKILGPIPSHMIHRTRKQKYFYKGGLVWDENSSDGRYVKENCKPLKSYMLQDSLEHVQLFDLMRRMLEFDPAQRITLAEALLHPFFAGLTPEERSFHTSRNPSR

For CCN(CC)CCCCNc1ncc2cc(-c3cc(OC)cc(OC)c3)c(NC(=O)NC(C)(C)C)nc2n1, the % of control [1] was 100%.

Compound COc1cc(N(C)c2ccnc3ccc(C(F)(F)F)cc23)cc(OC)c1OC has a % binding [2] of 86%.

In the case of CN(C)CCOc1ccc(-c2nc(-c3ccncc3)c(-c3ccc4c(c3)CC/C4=N\O)[nH]2)cc1, the % of control [3] is reported as 100%.

For C=CC(=O)Nc1cccc(C(=O)Nc2ccc(Nc3cc(-c4[nH]c(SC)nc4C)ccn3)cc2)c1, the % of control ([4]; at 1 µM) was 91% and the % of control ([4]; at 5 µM) was 87%.

Work on Nc1cnc(N2CCc3cc(S(=O)(=O)Nc4c(F)cc(Cl)cc4F)cc(N4CCCC4=O)c32)nc1 [TP-020n] yielded a % of control [5] of 99%.

O=C(NOC[C@H](O)CO)c1ccc(F)c(F)c1Nc1ccc(I)cc1F gave a % of control [6] of 96%.

For COCC(=O)NC/C=C/c1ccc2ncnc(Nc3ccc(Oc4ccc(C)nc4)c(C)c3)c2c1 [CP-724714], the % of control [7] was 100%, the % of control [8] was 100% and the % of control [9] was 100%.

CN(C)C/C=C/C(=O)Nc1ccc(C(=O)N2CCCC(Nc3ncc(Cl)c(-c4c[nH]c5ccccc45)n3)C2)cc1 (configuration not stated) showed a % of control [10] of 91%.

N#Cc1cccc(-c2c[nH]c3ncnc(N4CCOCC4)c23)c1 showed a % of control [11] of 46%.
